Results as given in patent publication US20100105081A1, “DETECTING FUNGI IN HUMAN SAMPLES” (MAYO MEDICAL VENTURES, priority 2004, published 2010).

System: Alternaria
Assay: Total Alternaria polypeptides in nasal secretions of CRS patients before and after treatment (competitive immunoassay)
Assay type: in vivo, human
Conditions: nasal secretion supernatants, change from baseline after treatment, N=6, paired samples
Description: Nasal secretions were obtained under endoscopic guidance using a sterile sinus secretion collector (Xomed Surgical Produces, Jacksonville, Fla.) from CRS patients before and after treatment with either placebo or amphotericin B. Each secretion specimen was extracted by adding twice the volume of 0.9% NaCl, vortexing, and centrifugation. The supernatants were stored at −20° C. To monitor changes in fungal antigen burden with treatment, total Alternaria polypeptides in nasal secretions were immunochemically quantitated essentially as described for latex polypeptides. Briefly, samples and a standard extract from Alternaria alternata competed with solid-phase Alternaria alternata polypeptides for rabbit anti-Alternaria IgG antibodies (ALK-Abello, Round Rock, Tex.). Radiolabeled, affinity-purified, goat anti-rabbit IgG was used for detection. The results are expressed as mass polypeptide per mL nasal secretion supernatants. The detection limit of the assay was 12 ng/mL for total Alternaria polypeptides. Sufficient quantities of mucus were not available to perform all the assays for each patient. The analyses were performed based on the availability of paired samples.

C[C@@H]1[C@H](O)[C@@H](C)/C=C/C=C/C=C/C=C/C=C/C=C/C=C/[C@H](O[C@@H]2O[C@H](C)[C@@H](O)[C@H](N)[C@@H]2O)C[C@@H]2O[C@](O)(C[C@@H](O)C[C@@H](O)[C@H](O)CC[C@@H](O)C[C@@H](O)CC(=O)O[C@H]1C)C[C@H](O)[C@H]2C(=O)O [Amphotericin B, amphotericin B]
Alternaria μg/mL, median change after treatment: -0.30 µg/mL | Alternaria μg/mL, range for change after treatment: -4.64 to 3.21 µg/mL
